# From patent publication US9815796B2 (Merck Sharp & Dohme Corp., priority 2013, dated 2017)
# Read-outs that look alike come from different tables or passages of the source.
# Experiments:
# Rhesus PDE2A3 = Rhesus PDE2A3 (Macaca mulatta, UniProt B3VTJ2); experiment: PDE2 fluorescence polarization (IMAP FP) inhibition assay, rhesus enzyme; format: biochemical, rhesus macaque
# How it was run: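 IMAP FP (mP from parallel and perpendicular fluorescence against substrate-only control) was read ≥1 h after adding binding reagent. The preceding 60 min room-temperature reaction contained FAM-cAMP (50 nM) and cGMP (1 uM) in pH 7.2 Tris buffer with MgCl2 and DTT. Enzyme was supernatant of sonicated AD293 cells expressing rhesus PDE2A3; compounds were 3-fold titrated, DMSO 1% final.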
# human PDE2A1 = human PDE2A1 (Homo sapiens (Human), UniProt O00408); experiment: IMAP FP PDE selectivity panel, human PDE2A1; format: biochemical
# How it was run: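 IMAP FP format: substrate 50 nM FAM-cAMP plus 1000 nM cGMP, enzyme (insect-cell GST-tagged human PDE2A1) at ~20% conversion, 60 min reaction at room temperature. Apparent inhibition constants calculated from parallel/perpendicular fluorescence with KM 10,000 nM.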
# [1] = Rhesus PDE2, Lab A, read-out: Rhesus PDE2 Ki (nM) - Lab A
# [2] = Human PDE2, Lab A, read-out: Human PDE2 Ki (nM) - Lab A
# [3] = Rhesus PDE2, Lab B, read-out: Rhesus PDE2 Ki (nM) - Lab B
# [4] = Human PDE2, Lab B, read-out: Human PDE2 Ki (nM) - Lab B
# human PDE2A1, sequence (O00408 other isoform, or with tags, fused parts or gaps): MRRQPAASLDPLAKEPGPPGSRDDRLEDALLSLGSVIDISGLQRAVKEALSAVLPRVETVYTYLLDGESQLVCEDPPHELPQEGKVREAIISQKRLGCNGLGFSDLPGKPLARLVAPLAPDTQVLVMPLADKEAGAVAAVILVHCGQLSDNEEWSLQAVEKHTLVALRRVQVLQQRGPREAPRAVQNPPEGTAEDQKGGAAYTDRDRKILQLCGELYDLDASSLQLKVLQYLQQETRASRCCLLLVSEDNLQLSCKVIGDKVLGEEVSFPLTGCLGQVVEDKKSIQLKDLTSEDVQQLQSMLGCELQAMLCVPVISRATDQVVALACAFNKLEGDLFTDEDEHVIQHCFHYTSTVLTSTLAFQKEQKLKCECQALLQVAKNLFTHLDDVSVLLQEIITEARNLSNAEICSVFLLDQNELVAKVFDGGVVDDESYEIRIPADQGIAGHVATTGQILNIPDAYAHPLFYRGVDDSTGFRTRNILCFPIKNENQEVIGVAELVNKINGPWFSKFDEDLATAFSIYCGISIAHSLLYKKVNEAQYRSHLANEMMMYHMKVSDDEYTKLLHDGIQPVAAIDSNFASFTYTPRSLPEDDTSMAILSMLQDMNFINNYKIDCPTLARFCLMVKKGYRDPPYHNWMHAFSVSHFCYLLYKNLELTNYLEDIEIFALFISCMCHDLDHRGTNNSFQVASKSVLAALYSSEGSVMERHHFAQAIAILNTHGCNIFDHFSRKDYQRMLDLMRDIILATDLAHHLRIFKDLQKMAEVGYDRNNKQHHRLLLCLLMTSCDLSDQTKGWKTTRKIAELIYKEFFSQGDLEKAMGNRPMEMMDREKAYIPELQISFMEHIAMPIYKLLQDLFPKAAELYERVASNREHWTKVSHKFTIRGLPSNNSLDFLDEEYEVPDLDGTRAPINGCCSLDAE
# Rhesus PDE2A3, sequence (B3VTJ2 1-941): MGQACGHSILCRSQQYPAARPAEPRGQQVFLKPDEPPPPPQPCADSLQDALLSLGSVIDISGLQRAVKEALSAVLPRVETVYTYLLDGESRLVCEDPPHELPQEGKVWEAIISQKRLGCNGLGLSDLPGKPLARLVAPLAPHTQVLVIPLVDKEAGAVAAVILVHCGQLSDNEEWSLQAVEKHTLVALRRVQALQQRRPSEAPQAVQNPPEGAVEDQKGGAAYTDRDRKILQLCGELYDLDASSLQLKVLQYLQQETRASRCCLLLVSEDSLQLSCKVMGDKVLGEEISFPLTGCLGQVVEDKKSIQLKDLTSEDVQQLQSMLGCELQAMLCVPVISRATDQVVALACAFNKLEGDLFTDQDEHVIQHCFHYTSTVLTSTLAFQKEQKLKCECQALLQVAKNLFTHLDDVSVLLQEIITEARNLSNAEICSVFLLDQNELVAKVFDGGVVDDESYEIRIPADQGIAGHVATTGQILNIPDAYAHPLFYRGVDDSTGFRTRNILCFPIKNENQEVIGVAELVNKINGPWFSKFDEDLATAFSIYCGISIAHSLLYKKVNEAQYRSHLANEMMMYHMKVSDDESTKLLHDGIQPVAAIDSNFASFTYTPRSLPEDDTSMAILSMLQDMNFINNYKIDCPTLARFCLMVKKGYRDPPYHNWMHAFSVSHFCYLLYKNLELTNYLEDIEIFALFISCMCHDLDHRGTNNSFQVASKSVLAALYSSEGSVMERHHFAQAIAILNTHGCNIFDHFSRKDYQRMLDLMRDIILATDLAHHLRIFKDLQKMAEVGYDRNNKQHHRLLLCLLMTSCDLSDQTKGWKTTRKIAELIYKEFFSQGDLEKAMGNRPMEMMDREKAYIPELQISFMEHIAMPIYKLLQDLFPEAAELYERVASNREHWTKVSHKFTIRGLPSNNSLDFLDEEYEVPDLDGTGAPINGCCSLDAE
SMILES,Ki (Rhesus PDE2A3; [1]),Ki (human PDE2A1; [2]),Ki (Rhesus PDE2A3; [3]),Ki (human PDE2A1; [4])
"CCc1ccc(C(C)NC(=O)c2cc(=O)[nH]c(C3CC3)n2)cc1 (stereo not drawn) [Example 194, 2-cyclopropyl-N-[1-(4-ethylphenyl)ethyl]-6-oxo-1,6-dihydropyrimidine-4-carboxamide]",72 nM,28 nM,–,–
"COc1ccc(Cc2nc(C(=O)N[C@@H](c3ccc(C(F)(F)F)cc3)C(C)C)cc(=O)[nH]2)cc1F [Example 516, 2-(3-fluoro-4-methoxybenzyl)-N-{(1R)-2-methyl-1-[4-(trifluoromethyl)phenyl]propyl}-6-oxo-1,6-dihydropyrimidine-4-carboxamide]",–,–,1.6 nM,1.5 nM
"COc1ccc(C(C)(C)c2nc(C(=O)N[C@@H](c3ccc(C(F)(F)F)c(F)c3)C(C)C)cc(=O)[nH]2)cc1 [Example 486, N-{(1R)-1-[3-fluoro-4-(trifluoromethyl)phenyl]-2-methylpropyl}-2-[1-(4-methoxyphenyl)-1-methylethyl]-6-oxo-1,6-dihydropyrimidine-4-carboxamide]",–,–,60 nM,46 nM
"CC(C)[C@@H](NC(=O)c1cc(=O)[nH]c(C2CC2)n1)c1ccc(C(F)(F)F)cc1 [Example 193, 2-cyclopropyl-N-{(1R)-2-methyl-1-[4-(trifluoromethyl)phenyl]propyl}-6-oxo-1,6-dihydropyrimidine-4-carboxamide]",3.9 nM,1.3 nM,–,–
"COc1ccc(C(C)(C)c2nc(C(=O)N[C@@H](c3ccc(OC(F)(F)F)cc3)C(C)C)cc(=O)[nH]2)cc1 [Example 494, 2-[1-(4-methoxyphenyl)-1-methylethyl]-N-{(1R)-2-methyl-1-[4-(trifluoromethoxy)phenyl]propyl}-6-oxo-1,6-dihydropyrimidine-4-carboxamide]",–,–,54 nM,46 nM
"Cc1nc(C(=O)N[C@H](C)c2ccc(OC(F)(F)F)c(F)c2)cc(=O)[nH]1 [Example 22, N-{(1R)-1-[3-fluoro-4-(trifluoromethoxy)phenyl]ethyl}-2-methyl-6-oxo-1,6-dihydropyrimidine-4-carboxamide]",13 nM,8.6 nM,14 nM,14 nM
"CC(C)c1nc(C(=O)N[C@H](C)c2ccc(C(F)(F)F)cc2)cc(=O)[nH]1 [Example 137, 2-(1-methylethyl)-6-oxo-N-{(1R)-1-[4-(trifluoromethyl)phenyl]ethyl}-1,6-dihydropyrimidine-4-carboxamide]",411 nM,231 nM,–,–
"C[C@@H](NC(=O)c1cc(=O)[nH]c(-c2ncccn2)n1)c1ccc(C(F)(F)F)c(Cl)c1 [Example 110, N-{(1R)-1-[3-chloro-4-(trifluoromethyl)phenyl]ethyl}-6-pxo-1,6-dihydro-2,2′-bipyrimidine-4-carboxamide]",12 nM,7.2 nM,–,–
"COC(=O)C(NC(=O)c1cc(=O)[nH]c(C)n1)c1ccc(C(F)(F)F)cc1 (racemic) [Example 325, Methyl 2-(2-methyl-6-oxo-1,6-dihydropyrimidine-4-carboxamido)-2-(4-(trifluoromethyl)phenyl)-acetate]",1100 nM,687 nM,–,–
"Cc1nc(C(=O)NC(c2ccc(C(F)(F)F)cc2)c2nnn[nH]2)cc(=O)[nH]1 (stereo not drawn) [Example 336, 2-Methyl-6-oxo-N-{1H-tetrazol-5-yl[4-(trifluoromethyl)phenyl]methyl}-1,6-dihydropyrimidine-4-carboxamide]",60 nM,59 nM,–,–
"Cc1nc(C(=O)N[C@@H](c2ccc(OC(F)F)cc2)C2CC2)cc(=O)[nH]1 [Example 610, N-{(R)-cyclopropyl[4-(difluoromethoxy)phenyl]methyl}-2-methyl-6-oxo-1,6-dihydropyrimidine-4-carboxamide]",–,–,68 nM,70 nM
"Cc1nc(C(=O)NC(C(=O)O)c2ccc(C(F)(F)F)cc2)cc(=O)[nH]1 (single isomer, unassigned) [Example 328]",33 nM,38 nM,–,–
"CC[C@@H](NC(=O)c1cc(=O)[nH]c(Cc2ccc(OC)cc2)n1)c1ccc(C(F)(F)F)c(F)c1 [Example 483, N-{(1R)-1-[3-fluoro-4-(trifluoromethyl)phenyl]propyl}-2-(4-methoxybenzyl)-6-oxo-1,6-dihydropyrimidine-4-carboxamide]",–,–,3 nM,2.9 nM
"CC[C@@H](NC(=O)c1cc(=O)[nH]c(C2CC2)n1)c1ccc(SC(F)(F)F)c(F)c1 [Example 246, 2-cyclopropyl-N-[(1R)-1-{3-fluoro-4-[(trifluoromethyl)sulfanyl]phenyl}propyl]-6-oxo-1,6-dihydropyrimidine-4-carboxamide]",3.1 nM,–,5.4 nM,5.2 nM
"CSCc1nc(C(=O)N[C@H](C)c2ccc(C(F)(F)F)cc2)cc(=O)[nH]1 [Example 36, 2-[(methylsulfanyl)methyl]-6-oxo-N-{(1R)-1-[4-(trifluoromethyl)phenyl]ethyl}-1,6-dihydropyrimidine-4-carboxamide]",163 nM,116 nM,–,–
"COc1ccc(C(C)(C)c2nc(C(=O)N[C@@H](c3ccc(C(F)(F)F)c(F)c3)C(C)(C)C)cc(=O)[nH]2)cc1 [Example 489, N-{(1R)-1-[3-fluoro-4-(trifluoromethyl)phenyl]-2,2-dimethylpropyl}-2-[1-(4-methoxyphenyl)-1-methylethyl]-6-oxo-1,6-dihydropyrimidine-4-carboxamide]",–,–,69 nM,61 nM
"O=C(N[C@@H](c1ccc(C(F)(F)F)c(F)c1)C1CC1)c1cc(=O)[nH]c(-c2ncccn2)n1 [Example 91, N-{(R)-cyclopropyl[3-fluoro-4-(trifluoromethyl)phenyl]methyl}-6-oxo-1,6-dihydro-2,2′-bipyrimidine-4-carboxamide]",34 nM,~9.8 nM,28 nM,33 nM
"Cc1nc(C(=O)N[C@H](C)c2ccc(S(F)(F)(F)(F)F)cc2)cc(=O)[nH]1 [Example 37, 2-methyl-6-oxo-N-{(1R)-1-[4-(pentafluoro-λ^6-sulfanyl)phenyl]ethyl}-1,6-dihydropyrimidine-4-carboxamide]",17 nM,14 nM,19 nM,27 nM
"Cc1nc(C(=O)NC(C)c2ccc(C3CC3)cc2)cc(=O)[nH]1 (stereo not drawn) [Example 42, N-[1-(4-cyclopropylphenyl)ethyl]-2-methyl-6-oxo-1,6-dihydropyrimidine-4-carboxamide]",72 nM,31 nM,–,–
"Cc1nc(C(=O)N[C@H](C)c2ccc(-c3ccccc3F)cc2)cc(=O)[nH]1 [Example 324, N-[(1R)-1-(2′-fluorobiphenyl-4-yl)ethyl]-2-methyl-6-oxo-1,6-dihydropyrimidine-4-carboxamide]",131 nM,138 nM,–,–
O=C(NC1(c2ccc(OC(F)(F)F)c(F)c2)CC1)c1cc(=O)[nH]c(C2CC2)n1 [Example 201],4.4 nM,2.8 nM,–,–
"C[C@@H](NC(=O)c1cc(=O)[nH]c(-c2ncccn2)n1)c1ccc(S(F)(F)(F)(F)F)cc1 [Example 111, 6-oxo-N-{(1R)-1-[4-(pentafluoro-λ^6-sulfanyl)phenyl]ethyl}-1,6-dihydro-2,2′-bipyrimidine-4-carboxamide]",3.6 nM,–,3.9 nM,4.7 nM
"C[C@@H](NC(=O)c1cc(=O)[nH]c(C2CC2)n1)c1ccc(SC(F)(F)F)cc1 [Example 15, (R)-2-cyclopropyl-6-oxo-N-(1-(4-((trifluoromethyl)thio)phenyl)ethyl)-1,6-dihydro pyrimidine-4-carboxamide]",4.4 nM,3.5 nM,–,–
"COc1cc(C(C)NC(=O)c2cc(=O)[nH]c(-c3ccccc3)n2)cc(OC)c1OC (stereo not drawn) [Example 351, 6-oxo-2-phenyl-N-[1-(3,4,5-trimethoxyphenyl)ethyl]-1,6-dihydropyrimidine-4-carboxamide]",124 nM,–,217 nM,224 nM
"CC[C@@H](NC(=O)c1cc(=O)[nH]c(C)n1)c1ccc(SC(F)(F)F)c(F)c1 [Example 54, N-[(1R)-1-{3-fluoro-4-[(trifluoromethyl)sulfanyl]phenyl}propyl]-2-methyl-6-oxo-1,6-dihydropyrimidine-4-carboxamide]",9.7 nM,5.5 nM,–,–
"CC(C)(C)[C@@H](NC(=O)c1cc(=O)[nH]c(-c2ccccc2)n1)c1ccc(OC(F)(F)F)cc1 [Example 462, N-{(1R)-2,2-dimethyl-1-[4-(trifluoromethoxy)phenyl]propyl}-6-oxo-2-phenyl-1,6-dihydropyrimidine-4-carboxamide]",–,–,1.4 nM,1.5 nM
"COCc1nc(C(=O)N[C@H](C)c2ccc(OC(F)(F)F)c(F)c2)cc(=O)[nH]1 [Example 126, N-{(1R)-1-[3-fluoro-4-(trifluoromethoxy)phenyl]-ethyl}-2-(methoxymethyl)-6-oxo-1,6-dihydropyrimidine-4-carboxamide]",48 nM,~11 nM,61 nM,64 nM
"CC(C)(C)[C@@H](NC(=O)c1cc(=O)[nH]c(C2CC2)n1)c1ccc(OC(F)(F)F)cc1 [Example 463, 2-cyclopropyl-N-{(1R)-2,2-dimethyl-1-[4-(trifluoromethoxy)phenyl]propyl}-6-oxo-1,6-dihydropyrimidine-4-carboxamide]",–,–,1.2 nM,0.84 nM
"CC[C@@H](NC(=O)c1cc(=O)[nH]c(-c2ncccn2)n1)c1ccc(OC(F)(F)F)cc1 [Example 106, 6-oxo-N-{(1R)-1-[4-(trifluoromethoxy)phenyl]propyl}-1,6-dihydro-2,2′-bipyrimidine-4-carboxamide]",12 nM,5.6 nM,–,–
